In ChEMBL document CHEMBL5724806, “Unraveling interindividual differences and functional consequences of gut microbial metabolism of immunosuppressants” (2024):

Legend:
Assay type in all cases: ADME
[1] = The drug is tested on Bacteroides xylanisolvens strain: HM 722 for biotransformation under anaerobic condition. The drug concentrations were measured over 6 timepoints collected between 0 and 12 hours of incubation by liquid-chromatography-coupled mass spectrometry (LC–MS); set-up: dose 5 uM, timepoint 0, 1.5, 3, 6, 9, 12 hours; settings: 5 µM
[2] = (§1) The drug is tested on Gemella morbillorum strain: DSM20572 for biotransformation under anaerobic condition. The drug concentrations were measured over 6 timepoints collected between 0 and 12 hours of incubation by liquid-chromatography-coupled mass spectrometry (LC–MS); set-up: dose 5 uM, timepoint 0, 1.5, 3, 6, 9, 12 hours; settings: 5 µM
[3] = The drug is tested on Alloscardovia omnicolens strain: DSM21503 for biotransformation under anaerobic condition. The drug concentrations were measured over 6 timepoints collected between 0 and 12 hours of incubation by liquid-chromatography-coupled mass spectrometry (LC–MS); set-up: dose 5 uM, timepoint 0, 1.5, 3, 6, 9, 12 hours; settings: 5 µM
[4] = The drug is tested on Clostridium ramosum strain: DSM1402 for biotransformation under anaerobic condition. The drug concentrations were measured over 6 timepoints collected between 0 and 12 hours of incubation by liquid-chromatography-coupled mass spectrometry (LC–MS); set-up: dose 5 uM, timepoint 0, 1.5, 3, 6, 9, 12 hours; settings: thomasclavelia ramosa, 5 µM
[5] = as §1, with “the gut metagenome community of T-04 with ENA study accession number: PRJEB31790” for “Gemella morbillorum strain: DSM20572”, “7” for “6”; set-up: dose 5 uM, timepoint 0, 0.75, 1.5, 3, 6, 9, 12 hours; settings: 5 µM
[6] = (§2) The drug is tested on Gemella haemolysans strain: DSM107751 for biotransformation under microaerobic condition. The drug concentrations were measured over 6 timepoints collected between 0 and 12 hours of incubation by liquid-chromatography-coupled mass spectrometry (LC–MS); set-up: dose 5 uM, timepoint 0, 1.5, 3, 6, 9, 12 hours; settings: 5 µM
[7] = The drug is tested on Clostridium bolteae strain: DSM15670 for biotransformation under anaerobic condition. The drug concentrations were measured over 6 timepoints collected between 0 and 12 hours of incubation by liquid-chromatography-coupled mass spectrometry (LC–MS); set-up: dose 5 uM, timepoint 0, 1.5, 3, 6, 9, 12 hours; settings: enterocloster bolteae, 5 µM
[8] = as §1, with “the gut metagenome community of A-10 with ENA study accession number: PRJEB31790” for “Gemella morbillorum strain: DSM20572”, “7” for “6”; set-up: dose 5 uM, timepoint 0, 0.75, 1.5, 3, 6, 9, 12 hours; settings: 5 µM
[9] = The drug is tested on Blautia hansenii strain: DSM20583 for biotransformation under anaerobic condition. The drug concentrations were measured over 6 timepoints collected between 0 and 12 hours of incubation by liquid-chromatography-coupled mass spectrometry (LC–MS); set-up: dose 5 uM, timepoint 0, 1.5, 3, 6, 9, 12 hours; settings: 5 µM
[10] = as §2, with “the gut metagenome community of A-08 with ENA study accession number: PRJEB31790” for “Gemella haemolysans strain: DSM107751”, “7” for “6”; set-up: dose 5 uM, timepoint 0, 0.75, 1.5, 3, 6, 9, 12 hours; settings: 5 µM
[11] = The drug is tested on Streptococcus sanguinis strain: DSM20567 for biotransformation under anaerobic condition. The drug concentrations were measured over 6 timepoints collected between 0 and 12 hours of incubation by liquid-chromatography-coupled mass spectrometry (LC–MS); set-up: dose 5 uM, timepoint 0, 1.5, 3, 6, 9, 12 hours; settings: 5 µM
[12] = as §2, with “the gut metagenome community of P-04 with ENA study accession number: PRJEB31790” for “Gemella haemolysans strain: DSM107751”, “7” for “6”; set-up: dose 5 uM, timepoint 0, 0.75, 1.5, 3, 6, 9, 12 hours; settings: 5 µM
[13] = The drug is tested on Streptococcus salivarius strain: DSM20560 for biotransformation under anaerobic condition. The drug concentrations were measured over 6 timepoints collected between 0 and 12 hours of incubation by liquid-chromatography-coupled mass spectrometry (LC–MS); set-up: dose 5 uM, timepoint 0, 1.5, 3, 6, 9, 12 hours; settings: 5 µM
[14] = The drug is tested on Actinomyces naeslundi strain: DSM43013 for biotransformation under anaerobic condition. The drug concentrations were measured over 6 timepoints collected between 0 and 12 hours of incubation by liquid-chromatography-coupled mass spectrometry (LC–MS); set-up: dose 5 uM, timepoint 0, 1.5, 3, 6, 9, 12 hours; settings: actinomyces naeslundii, 5 µM
[15] = The drug is tested on Akkermansia muciniphila strain: DSM22959 for biotransformation under anaerobic condition. The drug concentrations were measured over 6 timepoints collected between 0 and 12 hours of incubation by liquid-chromatography-coupled mass spectrometry (LC–MS); set-up: dose 5 uM, timepoint 0, 1.5, 3, 6, 9, 12 hours; settings: 5 µM
[16] = The drug is tested on Lactobacillus paracasei strain: ATCC27092 for biotransformation under microaerobic condition. The drug concentrations were measured over 6 timepoints collected between 0 and 12 hours of incubation by liquid-chromatography-coupled mass spectrometry (LC–MS); set-up: dose 5 uM, timepoint 0, 1.5, 3, 6, 9, 12 hours; settings: lacticaseibacillus paracasei, 5 µM
[17] = The drug is tested on Roseburia intestinalis strain: DSM14610 for biotransformation under anaerobic condition. The drug concentrations were measured over 6 timepoints collected between 0 and 12 hours of incubation by liquid-chromatography-coupled mass spectrometry (LC–MS); set-up: dose 5 uM, timepoint 0, 1.5, 3, 6, 9, 12 hours; settings: 5 µM
[18] = as §2, with “the gut metagenome community of P-02 with ENA study accession number: PRJEB31790” for “Gemella haemolysans strain: DSM107751”, “7” for “6”; set-up: dose 5 uM, timepoint 0, 0.75, 1.5, 3, 6, 9, 12 hours; settings: 5 µM
[19] = as §1, with “the gut metagenome community of P-01 with ENA study accession number: PRJEB31790” for “Gemella morbillorum strain: DSM20572”, “7” for “6”; set-up: dose 5 uM, timepoint 0, 0.75, 1.5, 3, 6, 9, 12 hours; settings: 5 µM
[20] = as §2, with “the gut metagenome community of A-04 with ENA study accession number: PRJEB31790” for “Gemella haemolysans strain: DSM107751”, “7” for “6”; set-up: dose 5 uM, timepoint 0, 0.75, 1.5, 3, 6, 9, 12 hours; settings: 5 µM
[21] = The drug is tested on Gemella haemolysans strain: DSM107751 for biotransformation under anaerobic condition. The drug concentrations were measured over 6 timepoints collected between 0 and 12 hours of incubation by liquid-chromatography-coupled mass spectrometry (LC–MS); set-up: dose 5 uM, timepoint 0, 1.5, 3, 6, 9, 12 hours; settings: 5 µM
[22] = The drug is tested on Escherichia coli strain: DSM27469 for biotransformation under anaerobic condition. The drug concentrations were measured over 6 timepoints collected between 0 and 12 hours of incubation by liquid-chromatography-coupled mass spectrometry (LC–MS); set-up: dose 5 uM, timepoint 0, 1.5, 3, 6, 9, 12 hours; settings: 5 µM
[23] = The drug is tested on Eubacterium hallii strain: DSM3353 for biotransformation under anaerobic condition. The drug concentrations were measured over 6 timepoints collected between 0 and 12 hours of incubation by liquid-chromatography-coupled mass spectrometry (LC–MS); set-up: dose 5 uM, timepoint 0, 1.5, 3, 6, 9, 12 hours; settings: anaerobutyricum hallii, 5 µM
[24] = as §1, with “the gut metagenome community of P-02 with ENA study accession number: PRJEB31790” for “Gemella morbillorum strain: DSM20572”, “7” for “6”; set-up: dose 5 uM, timepoint 0, 0.75, 1.5, 3, 6, 9, 12 hours; settings: 5 µM
[25] = The drug is tested on Collinsella aerofaciens strain: DSM3979 for biotransformation under anaerobic condition. The drug concentrations were measured over 6 timepoints collected between 0 and 12 hours of incubation by liquid-chromatography-coupled mass spectrometry (LC–MS); set-up: dose 5 uM, timepoint 0, 1.5, 3, 6, 9, 12 hours; settings: 5 µM
[26] = The drug is tested on Bifidobacterium longum strain: DSM20088 for biotransformation under anaerobic condition. The drug concentrations were measured over 6 timepoints collected between 0 and 12 hours of incubation by liquid-chromatography-coupled mass spectrometry (LC–MS); set-up: dose 5 uM, timepoint 0, 1.5, 3, 6, 9, 12 hours; settings: 5 µM
[27] = The drug is tested on Escherichia coli strain: DSM27469 for biotransformation under microaerobic condition. The drug concentrations were measured over 6 timepoints collected between 0 and 12 hours of incubation by liquid-chromatography-coupled mass spectrometry (LC–MS); set-up: dose 5 uM, timepoint 0, 1.5, 3, 6, 9, 12 hours; settings: 5 µM
[28] = as §1, with “the gut metagenome community of A-05 with ENA study accession number: PRJEB31790” for “Gemella morbillorum strain: DSM20572”, “7” for “6”; set-up: dose 5 uM, timepoint 0, 0.75, 1.5, 3, 6, 9, 12 hours; settings: 5 µM
[29] = The drug is tested on Actinomyces graevenitzii strain: DSM15540 for biotransformation under microaerobic condition. The drug concentrations were measured over 6 timepoints collected between 0 and 12 hours of incubation by liquid-chromatography-coupled mass spectrometry (LC–MS); set-up: dose 5 uM, timepoint 0, 1.5, 3, 6, 9, 12 hours; settings: 5 µM
[30] = as §2, with “the gut metagenome community of A-02 with ENA study accession number: PRJEB31790” for “Gemella haemolysans strain: DSM107751”, “7” for “6”; set-up: dose 5 uM, timepoint 0, 0.75, 1.5, 3, 6, 9, 12 hours; settings: 5 µM

Measured: Bacterial Biotransformation

CCOC(=O)[C@H](CCc1ccccc1)N[C@@H](C)C(=O)N1[C@H](C(=O)O)C[C@@H]2CCC[C@@H]21
Compound NOT metabolized: [1] | [2] | [3] | [4] | [5] | [6] | [7] | [8] | [9] | [10] | [11] | [12] | [13] | [14] | [15] | [16] | [17] | [18] | [19] | [20] | [21] | [22] | [23] | [24] | [25] | [26] | [27] | [28] | [29] | [30]

C[C@@H](NCCCc1cccc(C(F)(F)F)c1)c1cccc2ccccc12
Compound NOT metabolized: [1] | [2] | [3] | [4] | [5] | [6] | [7] | [8] | [9] | [10] | [11] | [12] | [13] | [14] | [15] | [16] | [17] | [18] | [19] | [20] | [21] | [22] | [23] | [24] | [25] | [26] | [27] | [28] | [29] | [30]

CC(C)NCC(O)COc1ccc(CC(N)=O)cc1 (stereo not given) [ATENOLOL]
Compound NOT metabolized: [1] | [2] | [3] | [4] | [5] | [6] | [7] | [8] | [9] | [10] | [11] | [12] | [13] | [14] | [15] | [16] | [17] | [18] | [19] | [20] | [21] | [22] | [23] | [24] | [25] | [26] | [27] | [28] | [29] | [30]
